{"source": "PubChem BioAssay AID220", "about": "(DTP/NCI, 2004)", "tested_on": "CD8F1 mice, subcutaneous mammary adenocarcinoma, T/C%", "experiment": "NCI In Vivo Anticancer Drug Screen. Data for tumor model Mammary Adenocarcinoma CD8F1 (subcutaneous) in CD8F1", "conditions": "higher = larger tumour", "how_it_was_run": "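Tumor-bearing mice, transplantable model; readout survival or tumor size; value = treated (T) / vehicle control (C).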", "key": {"[1]": {"conditions": "endpoint: median tumor weight (est.), dose: 12.5 mg/kg/injection, schedule: Q07DX005 (ip), vehicle: saline"}, "[2]": {"conditions": "endpoint: median tumor weight (est.), dose: 25.0 mg/kg/injection, schedule: Q07DX005 (ip), vehicle: saline"}, "[3]": {"conditions": "endpoint: median tumor weight change, dose: 125.0 mg/kg/injection, schedule: Q01DX001 (ip), vehicle: suspension in saline"}, "[4]": {"conditions": "endpoint: median tumor weight change, dose: 250.0 mg/kg/injection, schedule: Q01DX001 (ip), vehicle: suspension in saline"}}, "note": "Where “and” joins values, the source holds several entries; their conditions need not be identical. Equal values may be shown once. Results filed as inconclusive are left out."}
{"smiles": "COC1C(/C=C/C(C)=O)OC2OC(C)(C)OC21", "note": "(stereo unspecified)", "values": [{"measurement": "T/C", "setting": "endpoint: median tumor weight (est.), dose: 12.5 mg/kg/injection, schedule: Q07DX005 (ip), vehicle: Klucel (hydroxypropylcellulose) (HPC)", "result": "165 % of control"}, {"measurement": "T/C", "setting": "[1]", "result": "76 % of control"}, {"measurement": "T/C", "setting": "endpoint: median tumor weight (est.), dose: 25.0 mg/kg/injection, schedule: Q07DX005 (ip), vehicle: Klucel (hydroxypropylcellulose) (HPC)", "result": "99 % of control"}, {"measurement": "T/C", "setting": "[2]", "result": "83 % of control"}, {"measurement": "T/C", "setting": "endpoint: median tumor weight (est.), dose: 50.0 mg/kg/injection, schedule: Q07DX005 (ip), vehicle: Klucel (hydroxypropylcellulose) (HPC)", "result": "91 % of control"}, {"measurement": "T/C", "setting": "endpoint: median tumor weight (est.), dose: 50.0 mg/kg/injection, schedule: Q07DX005 (ip), vehicle: saline", "result": "38 % of control"}, {"measurement": "T/C", "setting": "endpoint: median tumor weight (est.), dose: 100.0 mg/kg/injection, schedule: Q07DX005 (ip), vehicle: Klucel (hydroxypropylcellulose) (HPC)", "result": "96 % of control"}, {"measurement": "T/C", "setting": "endpoint: median tumor weight (est.), dose: 100.0 mg/kg/injection, schedule: Q07DX005 (ip), vehicle: saline", "result": "101 % of control"}, {"measurement": "T/C", "setting": "endpoint: median tumor weight (est.), dose: 200.0 mg/kg/injection, schedule: Q07DX005 (ip), vehicle: Klucel (hydroxypropylcellulose) (HPC)", "result": "71 % of control"}, {"measurement": "T/C", "setting": "endpoint: median tumor weight (est.), dose: 200.0 mg/kg/injection, schedule: Q07DX005 (ip), vehicle: saline", "result": "101 % of control"}, {"measurement": "T/C", "setting": "endpoint: median tumor weight (est.), dose: 400.0 mg/kg/injection, schedule: Q07DX005 (ip), vehicle: saline", "result": "84 % of control"}]}
{"smiles": "Cc1ccc(C2NC(=S)N3C(c4ccc(C)cc4)NC(=S)N23)cc1", "note": "(stereo unspecified)", "values": [{"measurement": "T/C", "setting": "endpoint: median tumor weight change, dose: 125.0 mg/kg/injection, schedule: Q01DX001 (ip), vehicle: Klucel (hydroxypropylcellulose) (HPC)", "result": "77 % of control"}, {"measurement": "T/C", "setting": "endpoint: median tumor weight change, dose: 250.0 mg/kg/injection, schedule: Q01DX001 (ip), vehicle: Klucel (hydroxypropylcellulose) (HPC)", "result": "104 % of control"}, {"measurement": "T/C", "setting": "endpoint: median tumor weight change, dose: 500.0 mg/kg/injection, schedule: Q01DX001 (ip), vehicle: Klucel (hydroxypropylcellulose) (HPC)", "result": "107 % of control"}, {"measurement": "T/C", "setting": "endpoint: median tumor weight change, dose: 1000.0 mg/kg/injection, schedule: Q01DX001 (ip), vehicle: Klucel (hydroxypropylcellulose) (HPC)", "result": "94 % of control"}, {"measurement": "T/C", "setting": "endpoint: median tumor weight change, dose: 2000.0 mg/kg/injection, schedule: Q01DX001 (ip), vehicle: Klucel (hydroxypropylcellulose) (HPC)", "result": "68 % of control"}]}
{"smiles": "O=c1[nH]cnc2[nH]ncc12", "values": [{"measurement": "T/C", "setting": "[3]", "result": "104 % of control"}, {"measurement": "T/C", "setting": "[4]", "result": "71 % of control"}]}
{"smiles": "CN1c2c(nc(N)[nH]c2=O)NCC1CCNc1ccc(C(=O)NC(CCC(=O)O)C(=O)O)cc1", "note": "(stereo unspecified)", "values": [{"measurement": "T/C", "setting": "endpoint: mean tumor weight, dose: 25.0 mg/kg/injection, schedule: Q07DX008 (ip), vehicle: sodium bicarbonate", "result": "119 % of control"}, {"measurement": "T/C", "setting": "endpoint: mean tumor weight, dose: 50.0 mg/kg/injection, schedule: Q07DX008 (ip), vehicle: sodium bicarbonate", "result": "77 % of control"}, {"measurement": "T/C", "setting": "endpoint: mean tumor weight, dose: 100.0 mg/kg/injection, schedule: Q07DX008 (ip), vehicle: sodium bicarbonate", "result": "72 % of control"}, {"measurement": "T/C", "setting": "[1]", "result": "103 % of control"}, {"measurement": "T/C", "setting": "[2]", "result": "95 % of control"}, {"measurement": "T/C", "setting": "endpoint: median tumor weight (est.), dose: 800.0 mg/kg/injection, schedule: Q07DX005 (ip), vehicle: saline", "result": "98 % of control"}]}
{"smiles": "C=C(OP(=O)(OC)OC)Sc1ccccc1C", "values": [{"measurement": "T/C", "setting": "endpoint: median tumor weight change, dose: 0.38 mg/kg/injection, schedule: Q01DX001 (ip), vehicle: Klucel (hydroxypropylcellulose) (HPC)", "result": "80 % of control"}, {"measurement": "T/C", "setting": "endpoint: median tumor weight change, dose: 0.75 mg/kg/injection, schedule: Q01DX001 (ip), vehicle: Klucel (hydroxypropylcellulose) (HPC)", "result": "96 % of control"}, {"measurement": "T/C", "setting": "endpoint: median tumor weight change, dose: 1.5 mg/kg/injection, schedule: Q01DX001 (ip), vehicle: Klucel (hydroxypropylcellulose) (HPC)", "result": "88 % of control"}]}
{"smiles": "CC1=C(/C=C/C(C)=C/C=C/C(C)=C/C(=O)O)C(C)(C)CCC1", "values": [{"measurement": "T/C", "setting": "endpoint: median tumor weight (est.), dose: 8.0 mg/kg/injection, schedule: Q07DX005 (ip), vehicle: saline with Tween-80", "result": "47 % of control"}, {"measurement": "T/C", "setting": "endpoint: median tumor weight (est.), dose: 16.0 mg/kg/injection, schedule: Q07DX005 (ip), vehicle: saline with Tween-80", "result": "71 % of control"}, {"measurement": "T/C", "setting": "endpoint: median tumor weight (est.), dose: 64.0 mg/kg/injection, schedule: Q07DX005 (ip), vehicle: saline with Tween-80", "result": "92 % of control and 106 % of control"}, {"measurement": "T/C", "setting": "endpoint: median tumor weight (est.), dose: 256.0 mg/kg/injection, schedule: Q07DX005 (ip), vehicle: saline with Tween-80", "result": "49 % of control"}]}
{"smiles": "COC(=O)Nc1nc2ccc(C3(c4ccc(F)cc4)OCCO3)cc2[nH]1", "values": [{"measurement": "T/C", "setting": "endpoint: median tumor weight change, dose: 125.0 mg/kg/injection, schedule: Q01DX001 (ip), vehicle: saline", "result": "99 % of control"}, {"measurement": "T/C", "setting": "[3]", "result": "152 % of control"}, {"measurement": "T/C", "setting": "[4]", "result": "67 % of control"}, {"measurement": "T/C", "setting": "endpoint: median tumor weight change, dose: 500.0 mg/kg/injection, schedule: Q01DX001 (ip), vehicle: suspension in saline", "result": "153 % of control"}, {"measurement": "T/C", "setting": "endpoint: median tumor weight change, dose: 1000.0 mg/kg/injection, schedule: Q01DX001 (ip), vehicle: suspension in saline", "result": "93 % of control"}]}
